From patent US20100080852A1, “PHAMACEUTICAL COMPOSITION COMPRISING NANOPARTICLES AND CASEIN” (priority 2007, published 2010) come the findings set out here.

The nature of data set [1]: Solubility of the drugs in MFD solution, PBS or water. It is filed as physicochemical.
Another data set can be described thus: Log P value of the drugs. Format: physicochemical. As to conditions: octanol/water. The source says: The first property of hydrophobic drugs is that they are extremely hydrophobic. Log P, defined as the base 10 logarithm of the ratio of the drug solubility in octanol to the drug solubility in water, is a widely accepted measure of hydrophobicity. By “extremely hydrophobic” is meant that the Log P value of the drug is at least 4.0, preferably at least 4.5, and most preferably at least 5.0. Log P may be measured experimentally or calculated using methods known in the art. When using a calculated value for Log P, the highest value calculated using any generally accepted method for calculating Log P is used. Calculated Log P values are often referred to by the calculation method, such as Clog P, Alog P, and Mlog P. The Log P may also be estimated using fragmentation methods, such as Crippen's fragmentation method (27 J. Chem. Inf. Comput. Sci. 21 (1987)); Viswanadhan's fragmentation method (29 J. Chem. Inf. Comput. Sci. 163 (1989)); or Broto's fragmentation method (19 Eur. J. Med. Chem.-Chim. Theor. 71 (1984). Preferably the Log P value is calculated by using the average value estimated using Crippen's, Viswanadhan's, and Broto's fragmentation methods.

Where [2] appears, read: MFD solution, fassgf or other biorelevant, read-out: solubility in MFD solution.

Values after ≈ are worked out from the molar mass of the structure shown. Read-outs that look alike come from different tables or passages of the source. Where only a bound is given, the exact number is not on record here.

On to `Cc1ccc(-c2cc(C(F)(F)F)nn2-c2ccc(S(N)(=O)=O)cc2)cc1` [Drug 1, 4-[5-(4-methylphenyl)-3-(trifluoromethyl)-1H-pyrazol-1-yl]benzenesulfonamide], for which the solubility in data set [1] (setting [2]) is approximately 40 µg/mL (≈ 105 µM). Further, the logP in “Log P value of the drugs” (read-out: Log P value) was determined as 3.75.
In the case of `CCc1cc(Oc2cccc(N(Cc3cccc(OC(F)(F)C(F)F)c3)C[C@@H](O)C(F)(F)F)c2)ccc1Cl` [Drug 2, (2R)-3-[[3-(4-chloro-3-ethylphenoxy)phenyl][[3-(1,1,2,2-tetrafluoroethoxy)phenyl]methyl]amino]-1,1,1-trifluoro-2-propanol], in data set [1] (PBS, aqueous buffer, read-out: solubility in PBS), the solubility was less than 0.1 µg/mL. In “Log P value of the drugs” (read-out: Log P value), the logP turned out to be 10.
As to `CC[C@@H]1C[C@H](N(Cc2cc(C(F)(F)F)cc(C(F)(F)F)c2)C(C)=O)c2cc(C(F)(F)F)ccc2N1C(=O)OC(C)C` [Drug 3, [2R,4S] 4-[acetyl-(3,5-bis-trifluoromethyl-benzyl)-amino]-2-ethyl-6-trifluoromethyl-3,4-dihydro-2H-quinoline-1-carboxylic acid isopropyl ester], the solubility in data set [1] (setting [2]) was approximately 11 µg/mL (≈ 18.4 µM).
In turn, `c1cc[c]([Bi]([c]2ccccc2)[c]2ccccc2)cc1` [Drug 5, triphenyl bismuth] yielded a logP in “Log P value of the drugs” of 6.

Usually solubility stands for the concentration that dissolves in the medium under given conditions.
